“Also recorded” adds a separate entry of the source. Where two headings read alike, the source gives them in different places.
Legend:
HL-60 cells [1] = assay: Combination treatment: JS-K pretreatment then etoposide or daunorubicin, MTT; format: cell-based, human; settings: HL-60, JS-K pretreatment (0.25 μM)
Protocol: Combination treatment. For combined drug treatment, HL-60 cell lines were pretreated with JS-K (0.25 μM) for 6 h in RPMI 1640 at 37° C. The JS-K-containing culture medium was then removed and replaced with fresh RPMI-1640. Three different concentrations of either etoposide (0.2, 0.3 and 0.4 μM) or daunorubicin (5, 10 and 50 nM) were added to the pretreated HL-60 cells. The cells were incubated at 37° C. for additional 48 hours. Solution of 3-[4,5-dimethylthiazol-2-yl]-2,5-[…] (MTT) tetrazolium salt (1 mg/ml) was added to the cells. The cells were incubated again for 3 h to allow for MTT metabolism to formazan by the succinate-tetrazolim reductase system active only in viable cells. A solution of 0.04 N HCl in isopropyl alcohol was added to stop the MTT assay. The supernatant was then aspirated and 150 μl of trituration was added to dissolve the water-insoluble blue formazan. The optical densities were read on a spectrophotometric plate reader at a single wavelength of 570 nm. The absorbance for control cells was defined as an MTT activity of 100%.

HL-60 cells [2] = assay: HL-60 leukemia cell growth (Coulter counter or MTT assay); format: cell-based, human; settings: for cell growth, % of untreated control cells: HL-60, MTT, three days
Protocol: Cell Lines and Culture Conditions. HL-60, DLD1, and U937 cells were obtained from ATCC (Rockville, Md.). Meth A cells were from Dr. Wolfram Samlowski (University of Utah, Salt Lake City, Utah). The PPC-1 cell line was provided by Dr. Graeme Bolger (University of Alabama, Birmingham, Ala.). For the cell growth and apoptosis experiments, cells were cultured at a density of 150,000 cells/ml in RPMI-1640 with 10% fetal bovine serum at 37° C. in a 5% CO2 humidified atmosphere. Agents were added at the indicated concentrations 24 h after culture initiation. At the indicated time intervals, cells were harvested and washed twice in phosphate buffered saline (PBS) prior to processing for analysis of growth, differentiation, and apoptosis.
(§1) Cell Growth, Differentiation and Apoptosis Assays. The number of viable cells was determined using the MTT assay according to the manufacturer's protocol (Promega, Madison, Wis.) or using a Coulter counter. Briefly, a MTT assay is an analytical technique that uses the dye dimethylthiazolyl-diphenyltetrazolium (MTT) which turns from yellow to brownish-purple as it is reduced in the mitochondria of living cells. The assay is useful in calorimetric quantitation of cell viability and proliferation. In contrast, cell differentiation was evaluated using Wright and Non-Specific Esterase (NSE) staining of cells collected on microscope slides by cytospin as previously described (Magrinat, G. et al. (1992) Blood 80: 1880-1884). Apoptosis was assayed by flow cytometry and by determining DNA fragmentation using agarose gel electrophoresis as previously described (Shami, P. J. et al. (1998) Leukemia 12: 1461-1466). For the flow cytometry assay, we used the propidium iodide staining method of Nicoletti et al. (Nicoletti, I. et al. (1991) J. Immunol. Methods 139: 271-279).
For the initial screen, HL60 cells were cultured in triplicate in RPMI1640/10% FBS under standard conditions. Compounds were added to the cultures at the following concentrations: 0, 0.1, 1, 10, and 100 micromolar (uM). Three days after addition of the compounds cell growth was determined either using a Coulter counter or using the MTT assay.
The antiproliferative effects in the human AML (Acute Myeloid Leukemia) cell lines, HL-60 (myeloid leukemia) and U937 (monoblastic leukemia) cells were treated with JS-K for a period of 3 days, upon which cell growth was evaluated using a Coulter counter (CITY, STATE). JS-K was added to HL-60 cells at 0, 0.25, 0.5, 0.75, and 1.0 μM concentrations. […] Similar results were obtained in U937 cells under similar conditions.

HL-60 cells [3] = assay: Systemic leukemia model: NOD/SCID mice injected intravenously with HL-60 cells; format: in vivo
Protocol: A second experiment was conducted with NOD/SCID mice injected intravenously with HL-60 cells. Control mice appeared to develop systemic disease as evidenced by large abdominal lymph nodes and leukemia cell engraftment in the liver, spleen and bone marrow. Treated mice were administered 1 μmol/kg intravenous JS-K for three to four weeks beginning one day after inoculation. Control mice were treated with vehicle. A human-specific anti-CD15 antibody was utilized in flow cytometric analysis to identify the leukemic cells. […] Additionally, the number and size of enlarged abdominal lymph nodes appeared to be smaller in these animals.

HL-60 cells [4] = assay: Apoptosis in HL-60 cells by DNA laddering; format: cell-based, human; settings: 1 μM, twenty-four hours post-addition
Protocol: as §1
Twenty-four hours post-addition, apoptosis induction was assayed by DNA laddering.

[5] = 1 μmol/kg intravenous for three to four weeks, versus controls

Compound: CCOC(=O)N1CCN(/[N+]([O-])=N/Oc2ccc([N+](=O)[O-])cc2[N+](=O)[O-])CC1 [JS-K, O^2-(2,4-dinitrophenyl) 1-[(4-ethoxycarbonyl)piperazin-1-yl]diazen-1-ium-1,2-diolate]
- effect of JS-K pretreatment on daunorubicin and etoposide (HL-60 cells [1]): additive effect; also recorded: significantly enhanced efficacy of daunorubicin and etoposide
- IC50 (HL-60 cells [2]; HL-60, 3 days, Coulter counter, mean of 3 studies, read-out: IC50, cell growth): 220 nM
- cell growth, % of untreated control cells (HL-60 cells [2]; 0.75 uM): 28+/−0.79%
- cell growth, % of untreated control cells (HL-60 cells [2]; 0.75 uM JS-K together with 50 uM C-VAD-FMK): 79+/−2.4%
- IC50 (HL-60 cells [2]; HL-60, initial screen, at three days, read-out: 50% growth inhibitory concentration (IC50)): 220 nM
- JS-K-induced growth inhibition after NAC pretreatment (HL-60 cells [2]; HL-60, pretreatment 2-6 h with NAC): prevented the JS-K-induced growth inhibition
- JS-K-induced growth inhibition after BSO pretreatment (HL-60 cells [2]; HL-60, pretreatment with BSO for 2-6 h): did not appear to prevent the JS-K-induced growth inhibition
- JS-K-induced growth inhibition after BSO pretreatment (HL-60 cells [2]; HL-60, pretreatment with BSO for 24 h): appeared to enhance the effects
- IC50 (HL-60 cells [2]; HL-60 assay system, comparison with chemotherapeutic agents, read-out: IC50, growth inhibition): 500 nM
- colonies from cultured bone marrow in human hematopoietic cell-selective semi-solid medium (HL-60 cells [3]; 1 μmol/kg intravenous): few if any colonies of cancerous cells
- leukemic cell engraftment (anti-CD15 flow cytometry) (HL-60 cells [3]; [5]): decreased leukemic cell engraftment in the bone marrow and liver
- number and size of enlarged abdominal lymph nodes (HL-60 cells [3]; [5]): smaller
- treated mice with almost no evidence of disease (HL-60 cells [3]; three to four weeks after inoculation): Two of the five
- apoptosis induction by DNA laddering (HL-60 cells [4]): potent inducer of apoptosis in leukemia cells

Source: patent US8404665B2, “In vivo use of glutathione S-transferase activated nitric oxide donors” (University of Utah Research Foundation, priority 2002, dated 2013)
